# Source: EP4516280A1, “COSMETIC COMPOSITIONS” (The Boots Company plc, priority 2023, dated 2025)
# System: mushroom tyrosinase
# Test: Tyrosinase inhibition test (L-DOPA oxidation, absorbance at 470 nm)
# Assay type: biochemical
# Conditions: single compound, Concentration 0.1%
# Text: The tyrosinase inhibition test was used to determine the tyrosinase inhibition ability of the compounds. The test comprises adding the test compound to a solution of L-dihydroxyphenylalanine (L-(DOPA)) and mushroom tyrosinase. L-(DOPA) is converted to […] by the mushroom tyrosinase, causing a brown colour to form. Inhibition of this reaction prevents the brown colour formation. The lighter the colour at the end of the reaction, the stronger is the inhibitory effect of the active. Absorbance data may be collected using a plate reacted set up to have a kinetic read every 1 minute for 30 minutes, where absorbance is read at 470 nm.
row,Compound,Tyrosinase Inhibition (%)
1,"O=C(O)C(O)c1ccccc1 (centres unmarked) [B, Mandelic acid]",80.279
2,"C=C(C)[C@@H]1CCC(C)=C[C@H]1c1c(O)cc(CCCCC)cc1O [G, Cannabidiol isolate (CBD)]",9.134
3,"CC1(C)[C@@H](O[C@H]2O[C@H](C(=O)[O-])[C@@H](O)[C@H](O)[C@H]2O[C@@H]2O[C@H](C(=O)[O-])[C@@H](O)[C@H](O)[C@H]2O)CC[C@]2(C)[C@H]3C(=O)C=C4[C@@H]5C[C@@](C)(C(=O)O)CC[C@]5(C)CC[C@@]4(C)[C@]3(C)CC[C@@H]12.[K+].[K+] [H, Dipotassium glycyrrhizate (DPG)]",54.567
4,"CCCCCCCCCCCCCCC[C@@H](O)[C@@H](N)CO [K, Sphinganine]",-5.78
5,Feruloyl oligopeptide-33,41.765
